“Also recorded” adds a separate entry of the source.

One series deals with human B cell. The series can be described thus: in vitro human B cell activation. The format is cell-based.
The test system of the next series is 251 kinases. The series can be described thus: broad kinase enzyme inhibition panel. The format is biochemical. The following applies: 1 μM; of 251 kinases.
For series [1] the following is noted: humans, oral administration; cited from earlier work.
For a further series, the system named is Pemphigus foliaceus. The series can be described thus: treatment of dogs with newly diagnosed, naturally occurring Pemphigus foliaceus. The format is in vivo.
For series [2] the following is noted: in comparison to first and second generation BTKi; cited from earlier work.
In another series the test system is rat Arthus reaction. In words: rat Arthus reaction. The format is in vivo.
The subject of a further series is Fc receptor signaling. In words: in vitro antibody (IgG, IgE) mediated activation of immune cells via Fc receptor signaling. In kind it is cell-based.
In a further series the test system is immune thrombocytopenia. In words: mouse model of immune thrombocytopenia. In kind it is in vivo. The conditions noted are these: mouse ITP model.
Another series deals with other TEC family members. In words: preclinical assays of binding persistence, other TEC family members. The conditions noted are these: over time.
The test system of series [3] is collagen-induced arthritis. The series can be described thus: rat collagen-induced arthritis model. The format is in vivo.

On to `CC(C)(C=C(C#N)C(=O)N1CCC[C@@H](n2nc(-c3ccc(Oc4ccccc4)cc3F)c3c(N)ncnc32)C1)N1CCN(C2COC2)CC1` (mixture of isomers) [rilzabrutinib, (R)-2-[3-[4-amino-3-(2-fluoro-4-phenoxy-phenyl)pyrazolo[3,4-d]pyrimidin-1-yl]piperidine-1-carbonyl]-4-methyl-4-[4-(oxetan-3-yl)piperazin-1-yl]pent-2-enenitrile], for which the “human B cell activation” value in the series on human B cell is “profoundly inhibits human B cell activation”. Moreover, the “number of kinases with >90% inhibition” value with 251 kinases is 6 kinases. Also, the pharmacokinetics variability result in series [1] is “variable pharmacokinetics”. The “cases with disease safely controlled without the need for corticosteroid” value in the series on Pemphigus foliaceus was 4 of 4. Also, in series [2], the “cross-reactivity with other molecules” value is “minimal cross-reactivity with other molecules and is low risk for off-target effects”. Moreover, the “effect on rat Arthus reaction” value in the series with rat Arthus reaction is reported as “blockade of the rat Arthus reaction”. Also, in the series with Fc receptor signaling, the “antibody (IgG, IgE) mediated activation of immune cells via Fc receptor signaling” value was “blocks antibody (IgG, IgE) mediated activation of immune cells via Fc receptor signaling”. In addition, the “platelet loss (consumption)” value with immune thrombocytopenia is “reduction in platelet loss; also recorded: significant dose dependent reduction of platelet-loss”. For the same compound, the “persistence of binding to other TEC family members” value in the series on other TEC family members was “decayed rapidly over time”. Moreover, the disease reversal entry in series [3] is “full disease reversal”.

The values above are taken from patent publication US20260364079A1 (Principia Biopharma Inc., priority 2022, published 2026).
